# ChEMBL document CHEMBL1201862, “PubChem BioAssay data set” (2004)
# Activity calls are given as the source filed them.
# Experiments:
# [1] = biological target: T1, Ubiquitin-conjugating enzyme E2 N (Homo sapiens, UniProt P61088); assay type: functional
# T1 sequence (P61088 whole entry): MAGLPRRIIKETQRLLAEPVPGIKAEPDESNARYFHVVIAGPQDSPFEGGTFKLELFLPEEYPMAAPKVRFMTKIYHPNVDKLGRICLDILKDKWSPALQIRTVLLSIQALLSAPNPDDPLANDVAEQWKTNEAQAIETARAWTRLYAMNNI
# [2] = biological target: Intestinal-type alkaline phosphatase (Mus musculus, UniProt P24822); experiment: PubChem AID 488785; assay type: functional
# Sequence of Intestinal-type alkaline phosphatase (Mus musculus, UniProt P24822) (P24822 whole entry): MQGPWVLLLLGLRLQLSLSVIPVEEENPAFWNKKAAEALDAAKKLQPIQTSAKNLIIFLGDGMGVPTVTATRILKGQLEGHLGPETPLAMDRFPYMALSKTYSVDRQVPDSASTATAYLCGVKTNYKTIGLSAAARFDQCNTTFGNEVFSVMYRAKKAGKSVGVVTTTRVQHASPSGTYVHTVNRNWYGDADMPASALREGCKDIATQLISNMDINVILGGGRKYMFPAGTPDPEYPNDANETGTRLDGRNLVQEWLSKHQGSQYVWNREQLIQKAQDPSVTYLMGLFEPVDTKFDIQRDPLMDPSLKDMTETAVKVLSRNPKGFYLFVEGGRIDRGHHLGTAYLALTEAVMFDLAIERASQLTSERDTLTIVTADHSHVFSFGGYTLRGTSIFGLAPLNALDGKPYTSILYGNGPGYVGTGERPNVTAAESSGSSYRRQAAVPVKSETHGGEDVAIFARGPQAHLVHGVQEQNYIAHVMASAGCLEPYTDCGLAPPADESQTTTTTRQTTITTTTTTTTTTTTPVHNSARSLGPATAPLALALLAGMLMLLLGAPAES
# [3] = biological target: T1, Ubiquitin-conjugating enzyme E2 N; assay type: functional; remark: listed apart in the source
# [4] = biological target: T2, Alkaline phosphatase, tissue-nonspecific isozyme (Homo sapiens, UniProt P05186); experiment: TNAP enzyme inhibition by screening hits, dose response, selectivity assay for mouse IAP inhibitor project, biochemical, human TNAP, uHTS hits (AID 488906); assay type: functional
# T2 sequence (P05186 whole entry): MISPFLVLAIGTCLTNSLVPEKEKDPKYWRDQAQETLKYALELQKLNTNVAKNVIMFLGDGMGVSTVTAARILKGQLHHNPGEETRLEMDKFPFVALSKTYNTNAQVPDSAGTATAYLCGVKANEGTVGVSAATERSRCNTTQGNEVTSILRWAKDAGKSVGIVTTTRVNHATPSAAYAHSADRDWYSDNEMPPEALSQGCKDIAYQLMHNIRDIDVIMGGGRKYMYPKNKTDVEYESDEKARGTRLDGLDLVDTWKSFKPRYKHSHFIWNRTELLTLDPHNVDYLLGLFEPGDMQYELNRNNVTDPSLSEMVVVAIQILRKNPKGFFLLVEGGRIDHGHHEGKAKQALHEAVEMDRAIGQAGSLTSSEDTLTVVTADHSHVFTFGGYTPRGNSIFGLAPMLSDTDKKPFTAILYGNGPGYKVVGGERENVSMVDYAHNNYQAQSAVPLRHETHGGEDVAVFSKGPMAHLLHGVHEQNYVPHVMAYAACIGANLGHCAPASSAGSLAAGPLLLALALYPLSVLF
# [5] = biological target: Intestinal-type alkaline phosphatase (Homo sapiens, UniProt P09923); experiment: inhibition of human intestinal alkaline phosphatase – biochemical, dose response (AID 488876); assay type: functional
# Sequence of Intestinal-type alkaline phosphatase (Homo sapiens, UniProt P09923) (P09923 whole entry): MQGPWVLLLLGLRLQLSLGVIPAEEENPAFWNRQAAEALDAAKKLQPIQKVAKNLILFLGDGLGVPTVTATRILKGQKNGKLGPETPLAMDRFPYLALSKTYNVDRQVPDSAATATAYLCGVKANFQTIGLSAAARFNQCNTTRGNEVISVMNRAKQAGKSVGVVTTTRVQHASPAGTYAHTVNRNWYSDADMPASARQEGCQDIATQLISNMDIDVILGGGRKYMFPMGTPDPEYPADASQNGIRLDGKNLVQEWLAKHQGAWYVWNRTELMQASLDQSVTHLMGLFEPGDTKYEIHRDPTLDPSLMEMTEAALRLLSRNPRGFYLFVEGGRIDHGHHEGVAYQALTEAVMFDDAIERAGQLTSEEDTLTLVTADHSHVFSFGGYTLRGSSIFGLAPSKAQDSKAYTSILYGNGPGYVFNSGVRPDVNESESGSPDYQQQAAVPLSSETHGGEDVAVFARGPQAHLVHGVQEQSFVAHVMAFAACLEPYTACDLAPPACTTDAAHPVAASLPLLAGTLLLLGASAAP
# [6] = biological target: Heat shock protein HSP 90-alpha (Homo sapiens, UniProt P07900); assay type: functional, organism-based
# Insulin-degrading enzyme [7] = biological target: T3, Insulin-degrading enzyme (Homo sapiens, UniProt P14735); experiment: activators of recombinant IDE enzyme, dose response, counter-screen for IDE activator project, biochemical, fluorescence polarization (AID 588681)
# T3 sequence (P14735 whole entry): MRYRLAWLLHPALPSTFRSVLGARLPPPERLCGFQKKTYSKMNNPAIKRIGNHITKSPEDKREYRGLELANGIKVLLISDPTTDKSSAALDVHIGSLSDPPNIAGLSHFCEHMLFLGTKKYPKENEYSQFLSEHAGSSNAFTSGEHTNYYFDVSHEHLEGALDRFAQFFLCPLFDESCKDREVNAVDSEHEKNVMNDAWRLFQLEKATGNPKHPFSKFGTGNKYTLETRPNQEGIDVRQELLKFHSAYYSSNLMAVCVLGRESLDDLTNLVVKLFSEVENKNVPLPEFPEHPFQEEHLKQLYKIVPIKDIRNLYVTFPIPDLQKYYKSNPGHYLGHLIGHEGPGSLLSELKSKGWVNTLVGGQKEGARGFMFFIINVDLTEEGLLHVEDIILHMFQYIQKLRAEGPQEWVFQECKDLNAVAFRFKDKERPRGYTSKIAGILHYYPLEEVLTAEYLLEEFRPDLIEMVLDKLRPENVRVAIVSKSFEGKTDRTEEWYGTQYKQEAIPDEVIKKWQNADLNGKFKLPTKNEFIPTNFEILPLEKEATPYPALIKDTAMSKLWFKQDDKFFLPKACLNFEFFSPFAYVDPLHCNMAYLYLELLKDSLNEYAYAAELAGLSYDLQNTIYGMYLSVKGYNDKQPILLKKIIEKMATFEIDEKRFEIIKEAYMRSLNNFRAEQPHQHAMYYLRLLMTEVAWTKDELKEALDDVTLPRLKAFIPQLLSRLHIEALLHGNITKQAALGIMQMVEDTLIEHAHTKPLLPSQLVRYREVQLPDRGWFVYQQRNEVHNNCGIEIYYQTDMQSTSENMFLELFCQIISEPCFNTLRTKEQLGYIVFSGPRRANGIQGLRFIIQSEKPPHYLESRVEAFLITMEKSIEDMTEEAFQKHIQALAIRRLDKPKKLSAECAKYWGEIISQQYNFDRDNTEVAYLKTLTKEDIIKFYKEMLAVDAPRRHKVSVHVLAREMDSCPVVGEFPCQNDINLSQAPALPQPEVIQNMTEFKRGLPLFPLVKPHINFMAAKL
# Insulin-degrading enzyme [8] = biological target: T3, Insulin-degrading enzyme; experiment: activators of endogenous IDE in HEK cells, dose response, cell-based, fluorescence polarization (AID 588439); assay type: functional
# [9] = biological target: Delta-type opioid receptor (Homo sapiens, UniProt P41143); experiment: Counterscreen for agonists of heterodimerization of the mu 1 (OPRM1) and delta 1 (OPRD1) opioid receptors: Luminescence-based cell-based high throughput dose response assay to identify agonists of OPRD1 homodimerization. [Related pubchem assays (depositor defined):AID504326, AID504355, AID504692, AID504904, AID504905]; assay type: functional
# Sequence of Delta-type opioid receptor (P41143 whole entry): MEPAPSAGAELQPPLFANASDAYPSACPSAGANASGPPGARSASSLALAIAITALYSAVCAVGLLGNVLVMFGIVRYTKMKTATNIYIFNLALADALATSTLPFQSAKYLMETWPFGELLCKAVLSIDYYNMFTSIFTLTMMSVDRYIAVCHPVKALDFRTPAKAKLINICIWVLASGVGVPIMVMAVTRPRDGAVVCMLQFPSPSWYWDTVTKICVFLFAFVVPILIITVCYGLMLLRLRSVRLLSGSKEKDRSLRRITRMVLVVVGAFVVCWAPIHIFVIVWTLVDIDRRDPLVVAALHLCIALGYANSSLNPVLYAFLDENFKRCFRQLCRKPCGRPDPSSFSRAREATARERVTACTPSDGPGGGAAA
# Mu-type opioid receptor = Mu-type opioid receptor (Homo sapiens, UniProt P35372); experiment: Counterscreen for agonists of heterodimerization of the mu 1 (OPRM1) and delta 1 (OPRD1) opioid receptors: Luminescence-based cell-based high throughput dose response assay to identify agonists of OPRM1 homodimerization.; assay type: functional;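 further: U2OS cells expressing OPRM1 and beta-arrestin as split beta-galactosidase partners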
# Sequence of Mu-type opioid receptor (P35372 whole entry): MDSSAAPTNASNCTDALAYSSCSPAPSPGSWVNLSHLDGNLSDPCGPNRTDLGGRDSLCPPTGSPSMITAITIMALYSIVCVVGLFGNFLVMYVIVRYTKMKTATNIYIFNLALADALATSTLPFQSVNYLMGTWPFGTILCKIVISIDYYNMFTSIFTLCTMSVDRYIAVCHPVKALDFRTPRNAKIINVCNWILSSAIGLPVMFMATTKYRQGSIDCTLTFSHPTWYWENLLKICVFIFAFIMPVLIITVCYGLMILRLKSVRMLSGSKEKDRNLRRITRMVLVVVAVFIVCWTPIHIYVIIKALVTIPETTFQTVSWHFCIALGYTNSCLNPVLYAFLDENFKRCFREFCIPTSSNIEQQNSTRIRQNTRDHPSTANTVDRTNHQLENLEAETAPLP
# [10] = biological target: 5-hydroxytryptamine receptor 5A (Homo sapiens, UniProt P47898); experiment: Counterscreen for agonists of OPRM1-OPRD1 heterodimerization: luminescence-based cell-based high throughput dose response assay to identify agonists of 5-hydroxytryptamine (serotonin) 5A receptor (HTR5A). [Related pubchem assays (depositor defined):AID504326, AID504355, AID504692, AID504904, AID504905]; assay type: functional
# Sequence of 5-hydroxytryptamine receptor 5A (P47898 whole entry): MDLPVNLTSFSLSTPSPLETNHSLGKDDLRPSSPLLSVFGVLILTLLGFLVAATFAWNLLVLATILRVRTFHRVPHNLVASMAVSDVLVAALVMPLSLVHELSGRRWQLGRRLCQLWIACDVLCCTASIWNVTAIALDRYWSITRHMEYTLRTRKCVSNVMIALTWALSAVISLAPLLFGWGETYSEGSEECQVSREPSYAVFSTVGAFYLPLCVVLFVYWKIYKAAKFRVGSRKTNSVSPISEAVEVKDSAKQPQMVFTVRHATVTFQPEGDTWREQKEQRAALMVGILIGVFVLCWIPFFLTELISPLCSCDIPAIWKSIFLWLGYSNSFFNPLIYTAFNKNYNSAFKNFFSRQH
# [11] = biological target: T4, Small ubiquitin-related modifier 1 (Homo sapiens, UniProt P63165); experiment: inhibitors of SUMO1 peptide binding, dose response, biochemical, fluorescence polarization, uHTS hits (AID 624382); assay type: functional; conditions: read-out: IC50_Mean
# T4 sequence (P63165 whole entry): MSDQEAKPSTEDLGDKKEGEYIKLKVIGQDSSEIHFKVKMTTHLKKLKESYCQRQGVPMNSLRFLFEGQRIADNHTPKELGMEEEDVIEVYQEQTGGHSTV
# [12] = biological target: T4, Small ubiquitin-related modifier 1; experiment: inhibitors of SUMO1 partner interactions, dose response, biochemical, FRET (AID 624383); assay type: functional; conditions: read-out: IC50_Mean
smiles,measurement,setting,value
Clc1ccc(C(c2ccc(Cl)cc2)n2cc[n+](CC(OCc3ccc(Cl)cc3Cl)c3ccc(Cl)cc3Cl)c2)cc1 (stereo not drawn) [CALMIDAZOLIUM CHLORIDE],IC50,[1],10.9 µM (active)
same,IC50,[2],14.6 µM (active)
same,IC50,[3],5.6 µM (active)
same,IC50,[4],> 100 µM (inactive)
same,IC50,[5],> 100 µM (inactive)
same,AC50,[6],7.07 µM (active)
same,EC50,Insulin-degrading enzyme [7],> 54.7 µM (inactive)
same,EC50,Insulin-degrading enzyme [8],> 2.03 µM (active)
same,EC50,[9],> 92.5 µM (inactive)
same,EC50,Mu-type opioid receptor,> 92.5 µM (inactive)
same,EC50,[10],> 92.5 µM (inactive)
same,IC50,[11],> 66.6 µM (inactive)
same,IC50,[12],5.89 µM (active)
